In patent US4863905A, “Renin inhibitors II” (Warner-Lambert Company, priority 1987, dated 1989):

target: T1, renin (Homo sapiens, UniProt P00797); test: in vitro renin inhibitory activity, radioimmunoassay for angiotensin I; format: biochemical; settings: renin incubated two hours at 37° with substrate angiotensinogen; angiotensin I by radioimmunoassay; molar concentration causing 50% inhibition
T1 sequence (P00797 67-406): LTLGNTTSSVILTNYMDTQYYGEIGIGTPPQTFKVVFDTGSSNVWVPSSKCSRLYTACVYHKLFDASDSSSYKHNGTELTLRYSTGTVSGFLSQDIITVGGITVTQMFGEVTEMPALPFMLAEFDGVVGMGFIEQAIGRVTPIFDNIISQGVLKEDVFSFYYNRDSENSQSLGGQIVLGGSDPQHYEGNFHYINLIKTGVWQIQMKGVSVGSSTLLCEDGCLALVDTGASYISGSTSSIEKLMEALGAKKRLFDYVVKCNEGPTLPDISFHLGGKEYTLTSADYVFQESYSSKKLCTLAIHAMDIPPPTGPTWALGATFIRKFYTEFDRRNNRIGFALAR
Description: The effectiveness of the aforementioned compound is determined by a test for in vitro renin inhibitory activity. This activity is determined by a standard radioimmunoassay for angiotensin I. In this assay the enzyme, renin, incubated for two hours at 37° in the presence of a substrate, angiotensinogen, generates the product, angiotensin I. Test compounds are added to the incubation mixture. Relative activity is reported as the IC50, which is the molar concentration of test compound causing a 50% inhibition of the renin activity.

Substance | IC50 [nM]
DNMA--HIS--STA[CH2 NH]CH2 CH(CH3)CH2 CH3 [Example 10] | 8700
DNMA--HIS--LEU[CHOHCH2 ]SO2 NHCH2 CH2 Ph [Example 1] | 12000
DNMA--HIS--STA[CH2 SO2 ](CH2)3 CH3 [Example 4] | 160
DNMA--HIS[CH2 NH]STA--NHCH2 CH(CH3)CH2 CH3 [Example 8] | 16000
DNMA--HIS--CYCLOHEXYLALA[CHOHCH2 ]GLY--NHCH2 Ph [Example 17] | 3400
DNMA--HIS--CYCLOHEXYLALA[CHOHCH2 ]GLY--NHCH2 CH(CH3)--CH2 CH3 [Example 16] | 250
DNMA--HIS--CYCLOHEXYLALA[CHOHCH2 ](CH2)2 CH(CH3)2 [Example 5] | 1800
DNMA--HIS--STA[CHOHCH2 ]CH2 Ph [Example 18] | 12000

More lines, now with the values ahead:

IC50 [nM] | Substance
4400 | DNMA--HIS--CYCLOHEXYLALA[CHOHCH2 ]LEU--NHCH2 Ph [Example 14]
1900 | DNMA[CHOHCH2 ]LEU--STA--NHCH2 CH(CH3)CH2 CH3 [Example 20]
6400 | DNMA--HIS--CYCLOHEXYLALA[CHOHCH2 ]GLY--LEU--NHCH2 Ph [Example 11]
170 | DNMA--HIS--CYCLOHEXYLALA[CHOHCH2 ]LEU--NHCH2 CH(CH3)--CH2 CH3 [Example 15]
280 | DNMA--HIS--CYCLOHEXYLALA[CHOHCHOH]CH2 OH [Example 7]

same assay, conditions: renin incubated two hours at 37° with substrate angiotensinogen; angiotensin I by radioimmunoassay; molar concentration causing 50% inhibition; listed as DNMAHIS STA[CHOHCH2 ]CH2 Ph (ISOMER)

Substance | IC50 [nM]
DNMA--HIS--STA[CHOHCH2 ]CH2 Ph [Example 19] | 1400
